Activity calls are given as the source filed them. The calls are words filed in the database; no cut-off is given here.
Assays:
[1] = Chemical stability assessed as half life at neutrality pH; assay type: physicochemical
[2] = Stability assessed as half life at pH 4 by HPLC; assay type: physicochemical; conditions: buffer
[3] = Stability assessed as half life at pH 8 by HPLC; assay type: physicochemical; conditions: buffer
[4] = Stability assessed as half life at pH 2.6 by HPLC; assay type: physicochemical; conditions: buffer
[5] = Stability assessed as half life at pH 7.4 by HPLC; assay type: physicochemical; conditions: buffer
Mus musculus [6] = assay: Inhibition of dextran sodium sulfate-induced ulcerative colitis in BALB/c mouse assessed as decrease in body weight loss at 5 mg/kg, po twice daily for 6 days relative to control; assay type: functional, organism-based; design: dose 5 mg/kg
Mus musculus [7] = assay: Inhibition of dextran sodium sulfate-induced ulcerative colitis in BALB/c mouse assessed as decrease in colon shortening at 5 mg/kg, po twice daily for 6 days relative to control; assay type: functional, organism-based; design: dose 5 mg/kg
Mus musculus [8] = assay: Inhibition of dextran sodium sulfate-induced ulcerative colitis in BALB/c mouse assessed as decrease in disease activity index at 5 mg/kg, po twice daily for 6 days relative to control; assay type: functional, organism-based; design: dose 5 mg/kg
Mus musculus [9] = assay: Toxicity in dextran sodium sulfate treated BALB/c mouse ulcerative colitis model assessed as reduction in thymus weight to body weight ratio at 5 mg/kg, po administered twice daily for 6 days relative to control; assay type: organism-based; design: dose 5 mg/kg, route oral; conditions: in vivo, 144 h
[10] = Stability at pH 8 to 9 after 24 hrs; assay type: physicochemical; conditions: buffer, pH 8, 24 h
[11] = Stability in human gastric juice after 24 hrs; assay type: ADME, tissue-based
[12] = Stability at pH 3.4 to 7.4 after 24 hrs; assay type: physicochemical; conditions: buffer, pH 3.4, 24 h
[13] = Apparent permeability from basolateral to apical side in human Caco-2 cells by HPLC; assay type: ADME, cell-based
Mus musculus [14] = assay: Inhibition of dextran sodium sulfate-induced ulcerative colitis in po dosed BALB/c mouse assessed as decrease in body weight loss administered twice daily for 6 days relative to control; assay type: functional, organism-based
Mus musculus [15] = assay: Inhibition of dextran sodium sulfate-induced ulcerative colitis in po dosed BALB/c mouse assessed as decrease in disease activity index administered twice daily for 6 days relative to control; assay type: functional, organism-based
Mus musculus [16] = assay: Inhibition of dextran sodium sulfate-induced ulcerative colitis in po dosed BALB/c mouse assessed as decrease in colon shortening administered twice daily for 6 days relative to control; assay type: functional, organism-based
Mus musculus [17] = assay: Toxicity in dextran sodium sulfate treated po dosed BALB/c mouse ulcerative colitis model assessed as reduction in thymus weight to body weight ratio administered twice daily for 6 days relative to control; assay type: organism-based; conditions: in vivo, 144 h

Question: For `COC(=O)CCc1ccccc1N`, which half-life [1] is on record?
Answer: 57 min

Question: For `C[C@]12CCC(=O)C=C1CC[C@@H]1[C@@H]2[C@@H](O)C[C@@]2(C)[C@H]1CC[C@]2(O)C(=O)COC(=O)CCc1ccccc1N`, which half-life [2] is on record?
Answer: 30 min

Question: What about the half-life [3] of the same compound?
Answer: 44 min

Question: And the half-life [4]?
Answer: 54 min

Question: What about the half-life [5] of the same compound?
Answer: 73 min

Question: Which Activity (Mus musculus [6]) does the source give for `C[C@]12C=CC(=O)C=C1CC[C@@H]1[C@@H]2[C@@H](O)C[C@@]2(C)[C@H]1CC[C@]2(O)C(=O)COC(=O)Cc1ccccc1/N=N/c1ccc(O)c(C(=O)O)c1` here?
Answer: inactive

Question: And the Activity (Mus musculus [7])?
Answer: inactive

Question: And the Activity (Mus musculus [8])?
Answer: inactive

Question: What about the Activity (Mus musculus [9]) of the same compound?
Answer: Non-toxic

Question: Which Activity (Mus musculus [6]) does the source give for `C[C@]12C=CC(=O)C=C1CC[C@@H]1[C@@H]2[C@@H](O)C[C@@]2(C)[C@H]1CC[C@]2(O)C(=O)COC(=O)CCc1ccccc1/N=N/c1ccc(O)c(C(=O)O)c1` here?
Answer: Active

Question: What about the Activity (Mus musculus [7]) of the same compound?
Answer: Active

Question: And the Activity (Mus musculus [8])?
Answer: Active

Question: What about the Activity (Mus musculus [9]) of the same compound?
Answer: Non-toxic

Question: And the Stability [10]?
Answer: Unstable

Question: And the Stability [11]?
Answer: Stable

Question: What about the Stability [12] of the same compound?
Answer: Stable

Question: What about the Papp B→A [13] of the same compound?
Answer: 14 ×10⁻⁶ cm/s

Question: With `C[C@]12C=CC(=O)C=C1CC[C@@H]1[C@@H]2[C@@H](O)C[C@@]2(C)[C@H]1CC[C@]2(O)C(=O)CO` [PREDNISOLONE] as the compound, how does the Activity (Mus musculus [14]) read?
Answer: Active

Question: And the Activity (Mus musculus [15])?
Answer: Active

Question: And the Activity (Mus musculus [16])?
Answer: Active

Question: What about the Activity (Mus musculus [17]) of the same compound?
Answer: Toxic

Source: ChEMBL document CHEMBL1138508, “Design, synthesis, and pharmacological effects of a cyclization-activated steroid prodrug for colon targeting in inflammatory bowel disease” (J Med Chem, 2009)
